Laboratory results reported in patent publication US8518945B2, “Pyrrolopyrazine kinase inhibitors” (Hoffmann-La Roche Inc., priority 2010, dated 2013).

The compounds below were run against T1, h-jak3(810-1124) (JAK3: Recombinant human kinase domain) (Homo sapiens, UniProt P52333) (assay: Determination of IC50 of Janus Kinase (JAK) inhibition: JAK3 radioactive end-point 33P-ATP kinase assay). Settings: no additive; ATP 1.5 uM, peptide 50 uM, 20 minutes, room temperature; read-out: Ic50 h-jak3(810-1124)-sf9-c: no additive.
T1 construct: jak3(810- 1124)-sf9-c; made in house; host or cells: Sf9
Format: biochemical
Source text: Determination of IC50 of Janus Kinase (JAK) Inhibition:
Enzymes and peptide substrate used are described below: • JAK1: Recombinant human kinase domain from Invitrogen (Cat # PV4774) • JAK3: Recombinant human kinase domain from Millipore (Cat # 14-629) or prepared. • JAK2: Recombinant human kinase domain from Millipore (Cat # 14-640) • Substrate: N-terminally biotinylated 14-mer peptide derived from activation loop of JAK1 with sequence of the peptide substrate: Biotin-[sequence]
Assay conditions— used are described below: • Assay Buffer: JAK Kinase Buffer: 50 mM Hepes [pH 7.2], 10 mM MgCl2, 1 mM DTT, 1 mg/ml BSA. The assay was carried out in this buffer. • Assay Format The kinase activity of all three JAK kinases was measured using a radioactive, end-point assay and with trace amounts of ^33P-ATP. The assays were carried out in 96-well polypropylene plates. Experimental Method:
All concentrations were final in the reaction mixture and all incubations were carried at room temperature. […] Final concentration of DMSO in the reaction was 10%. • 2) Compounds were preincubated with enzyme (0.5 nM JAK3 (commercially available), 0.2 nM JAK3 (prepared), 1 nM JAK2, 5 nM JAK1) for 10 minutes. • 3) Reactions were initiated by the addition of a cocktail of the two substrates (ATP and peptide premixed in the JAK Kinase Buffer). In the JAK2/JAK3 assays, ATP and the peptide were used at concentrations of 1.5 uM and 50 uM, respectively. JAK1 assay was carried out at an ATP concentration of 10 uM and a peptide concentration of 50 uM. • 4) The duration of the assay for JAK2 and JAK3 is 20 minutes. JAK1 assay was carried out for 40 minutes. With all three enzymes, reactions were terminated by the addition of 0.5M EDTA to a final concentration of 100 mM. • 5) 25 ul of terminated reactions were transferred to 150 ul of a 7.5% (v/v) slurry of streptavidin-coated sepharose beads in MgCl2- and CaCl2-free 1× Phosphate Buffered Saline containing 50 mM of EDTA in 96-well, 1.2 um MultiScreen-BV filter plates. • 6) After a 30-minute incubation, the beads were washed under vacuum with the following buffers: • a. 3 to 4 washes with 200 ul of 2M NaCl. • b. 3 to 4 washes with 200 ul of 2M NaCl plus 1% (v/v) phosphoric acid. • c. 1 wash with water. • 7) Washed plates were dried in a 60° C. oven for between 1 to 2 hours. • 8) 70 ul of Microscint 20 scintillation fluid was added to each well of filter plates and after at least 30 minutes of incubation, radioactive counts were measured in a Perkinelmer microplate scintillation counter.

T1 sequence (P52333 810-1124): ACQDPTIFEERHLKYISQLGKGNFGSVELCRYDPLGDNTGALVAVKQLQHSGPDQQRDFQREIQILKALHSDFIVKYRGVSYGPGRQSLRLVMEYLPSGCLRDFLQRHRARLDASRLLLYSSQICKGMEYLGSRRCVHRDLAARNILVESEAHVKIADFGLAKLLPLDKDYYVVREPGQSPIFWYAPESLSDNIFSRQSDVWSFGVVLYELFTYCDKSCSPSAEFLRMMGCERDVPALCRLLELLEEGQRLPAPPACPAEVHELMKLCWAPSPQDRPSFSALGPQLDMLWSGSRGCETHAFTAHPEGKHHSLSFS

Row | Structure (SMILES) | IC50 [nM]
1 | O=C(N[C@@H](C(=O)N1CCCC1)C1CCCCC1)c1c[nH]c2ncc(C3CC3)nc12 [Example I-37, 2-Cyclopropyl-5H-pyrrolo[2,3-b]pyrazine-7-carboxylic acid ((R)-1-cyclohexyl-2-oxo-2-pyrrolidin-1-yl-ethyl)-amide] | 1.8
2 | Cn1cc(-c2cnc3[nH]cc(C(=O)N[C@@H](C(=O)N4CC(C#N)C4)C(C)(C)C)c3n2)cn1 [Example I-53, 2-(1-Methyl-1H-pyrazol-4-yl)-5H-pyrrolo[2,3-b]pyrazine-7-carboxylic acid [(R)-1-(3-cyano-azetidine-1-carbonyl)-2,2-dimethyl-propyl]-amide] | 279
3 | C[C@@H](NC(=O)c1c[nH]c2ncc(-c3cc4nccc(Cl)c4s3)nc12)C(=O)N1CC(C#N)C1 [Example I-100, 2-(7-Chloro-thieno[3,2-b]pyridin-2-yl)-5H-pyrrolo[2,3-b]pyrazine-7-carboxylic acid [(R)-2-(3-cyano-azetidin-1-yl)-1-methyl-2-oxo-ethyl]-amide] | 16
4 | CNC(=O)c1cccc(-c2cnc3[nH]cc(C(=O)N[C@H](C)C(=O)N4CC(C#N)C4)c3n2)c1 [Example I-110, 2-(3-Methylcarbamoyl-phenyl)-5H-pyrrolo[2,3-b]pyrazine-7-carboxylic acid [(R)-2-(3-cyano-azetidin-1-yl)-1-methyl-2-oxo-ethyl]-amide] | 1.22
5 | C[C@@H](NC(=O)c1c[nH]c2ncc(C3CC3)nc12)C(=O)N1CC[C@H](F)C1 [Example I-22, 2-Cyclopropyl-5H-pyrrolo[2,3-b]pyrazine-7-carboxylic acid [(R)-2-((S)-3-fluoro-pyrrolidin-1-yl)-1-methyl-2-oxo-ethyl]-amide] | 5.34
6 | C[C@@H](NC(=O)c1c[nH]c2ncc(C3CC3)nc12)C(=O)N1CCC(C(F)(F)F)C1 (stereo partly drawn) [Example I-25, 2-Cyclopropyl-5H-pyrrolo[2,3-b]pyrazine-7-carboxylic acid [(R)-1-methyl-2-oxo-2-(3-trifluoromethyl-pyrrolidin-1-yl)-ethyl]-amide] | 16.1
7 | CCn1cc(-c2cnc3[nH]cc(C(=O)N[C@@H](C(=O)N4CCC(O)(C(F)(F)F)CC4)C4CC4)c3n2)cn1 [Example I-146, 2-(1-Ethyl-1H-pyrazol-4-yl)-5H-pyrrolo[2,3-b]pyrazine-7-carboxylic acid [(R)-1-cyclopropyl-2-(4-hydroxy-4-trifluoromethyl-piperidin-1-yl)-2-oxo-ethyl]-amide] | 0.38
8 | CCn1cc(-c2cnc3[nH]cc(C(=O)N[C@H](C(=O)N4CCC(C#N)CC4)C4(C(F)(F)F)CC4)c3n2)cn1 [Example I-74, 2-(1-Ethyl-1H-pyrazol-4-yl)-5H-pyrrolo[2,3-b]pyrazine-7-carboxylic acid [(S)-2-(4-cyano-piperidin-1-yl)-2-oxo-1-(1-trifluoromethyl-cyclopropyl)-ethyl]-amide] | 1.13
9 | N#CC1CN(C(=O)[C@H](NC(=O)c2c[nH]c3ncc(-c4ccc(C(F)(F)F)cc4)nc23)C2CC2)C1 [Example I-160, 2-(4-Trifluoromethyl-phenyl)-5H-pyrrolo[2,3-b]pyrazine-7-carboxylic acid [(R)-2-(3-cyano-azetidin-1-yl)-1-cyclopropyl-2-oxo-ethyl]-amide] | 0.38
10 | CC(C)(C)[C@@H](NC(=O)c1c[nH]c2ncc(-c3cnc(Cl)s3)nc12)C(=O)N1CCC(C#N)CC1 [Example I-156, 2-(2-Chloro-thiazol-5-yl)-5H-pyrrolo[2,3-b]pyrazine-7-carboxylic acid [(R)-1-(4-cyano-piperidine-1-carbonyl)-2,2-dimethyl-propyl]-amide] | 5.97
11 | CC(C)(C)C[C@@H](NC(=O)c1c[nH]c2ncc(C3CC3)nc12)C(=O)N1CCC(C#N)CC1 [Example I-49, 2-Cyclopropyl-5H-pyrrolo[2,3-b]pyrazine-7-carboxylic acid [(R)-1-(4-cyano-piperidine-1-carbonyl)-3,3-dimethyl-butyl]-amide] | 1.01
12 | C[C@@H](NC(=O)c1c[nH]c2ncc(-c3cccc(N4CCCC4)c3)nc12)C(=O)N1CC(C#N)C1 [Example I-109, 2-(3-Pyrrolidin-1-yl-phenyl)-5H-pyrrolo[2,3-b]pyrazine-7-carboxylic acid [(R)-2-(3-cyano-azetidin-1-yl)-1-methyl-2-oxo-ethyl]-amide] | 0.61
13 | CC[C@H](C)[C@@H](NC(=O)c1c[nH]c2ncc(C3CC3)nc12)C(=O)N1CCC(C#N)CC1 [Example I-124, 2-Cyclopropyl-5H-pyrrolo[2,3-b]pyrazine-7-carboxylic acid [(1R,2S)-1-(4-cyano-piperidine-1-carbonyl)-2-methyl-butyl]-amide] | 1.37
14 | CC(C)NC(=O)c1cccc(-c2cnc3[nH]cc(C(=O)N[C@H](C)C(=O)N4CC(C#N)C4)c3n2)c1 [Example I-111, 2-(3-Isopropylcarbamoyl-phenyl)-5H-pyrrolo[2,3-b]pyrazine-7-carboxylic acid [(R)-2-(3-cyano-azetidin-1-yl)-1-methyl-2-oxo-ethyl]-amide] | 5.71
15 | CC(C)(C)[C@@H](NC(=O)c1c[nH]c2ncc(C3CC3)nc12)C(=O)N1CC[C@@H](C#N)C1 [Example I-31, 2-Cyclopropyl-5H-pyrrolo[2,3-b]pyrazine-7-carboxylic acid [(R)-1-((R)-3-cyano-pyrrolidine-1-carbonyl)-2,2-dimethyl-propyl]-amide] | 0.8
16 | COc1ccnc2cc(-c3cnc4[nH]cc(C(=O)N[C@H](C)C(=O)N5CC(C#N)C5)c4n3)sc12 [Example I-103, 2-(7-Methoxy-thieno[3,2-b]pyridin-2-yl)-5H-pyrrolo[2,3-b]pyrazine-7-carboxylic acid [(R)-2-(3-cyano-azetidin-1-yl)-1-methyl-2-oxo-ethyl]-amide] | 8.34
17 | C[C@@H](NC(=O)c1c[nH]c2ncc(C3CC3)nc12)C(=O)N1CCC(C#N)C1 (stereo partly drawn) [Example I-14, 2-Cyclopropyl-5H-pyrrolo[2,3-b]pyrazine-7-carboxylic acid [(R)-2-(3-cyano-pyrrolidin-1-yl)-1-methyl-2-oxo-ethyl]-amide] | 8.02
18 | Cn1cc(-c2cnc3[nH]cc(C(=O)N[C@@H](C(=O)N4C[C@@H]5[C@@H](CO)[C@@H]5C4)C4CC4)c3n2)cn1 [Example I-87, 2-(1-Methyl-1H-pyrazol-4-yl)-5H-pyrrolo[2,3-b]pyrazine-7-carboxylic acid [(R)-1-cyclopropyl-2-((1S,5R,6R)-6-hydroxymethyl-3-aza-bicyclo[3.1.0]hex-3-yl)-2-oxo-ethyl]-amide] | 4.49
19 | C[C@@H](NC(=O)c1c[nH]c2ncc(-c3cc4nccc(N5CCCC5)c4s3)nc12)C(=O)N1CC(C#N)C1 [Example I-101, 2-(7-Pyrrolidin-1-yl-thieno[3,2-b]pyridin-2-yl)-5H-pyrrolo[2,3-b]pyrazine-7-carboxylic acid [(R)-2-(3-cyano-azetidin-1-yl)-1-methyl-2-oxo-ethyl]-amide] | 37
20 | C[C@@H](NC(=O)c1c[nH]c2ncc(C3CC3)nc12)C(=O)N1CC2(COC2)C1 [Example I-24, 2-Cyclopropyl-5H-pyrrolo[2,3-b]pyrazine-7-carboxylic acid [(R)-1-methyl-2-(2-oxa-6-aza-spiro[3.3]hept-6-yl)-2-oxo-ethyl]-amide] | 72.8
